The text below walks through data of CN103301132A, “川芎嗪仲、叔醇类衍生物及其在制药中的应用” (Nanjing University of Chinese Medicine, priority 2013, dated 2013).

Like-named read-outs stand apart in the source and are kept apart here.

A short description of data set [1]: Further study of other liguzinediol derivatives (activity, arrhythmia). To be noted: no details given.
For data set [2] the following is noted: cited from earlier work.
The target of data set [3] is T1, SERCA2a in cardiomyocytes [心肌细胞内的SERCA2a靶点] (Homo sapiens, UniProt P16615).
T1 construct: 心肌细胞内的SERCA2a靶点; endogenous in cells
T1 sequence (P16615 1-997 isoform P16615-2): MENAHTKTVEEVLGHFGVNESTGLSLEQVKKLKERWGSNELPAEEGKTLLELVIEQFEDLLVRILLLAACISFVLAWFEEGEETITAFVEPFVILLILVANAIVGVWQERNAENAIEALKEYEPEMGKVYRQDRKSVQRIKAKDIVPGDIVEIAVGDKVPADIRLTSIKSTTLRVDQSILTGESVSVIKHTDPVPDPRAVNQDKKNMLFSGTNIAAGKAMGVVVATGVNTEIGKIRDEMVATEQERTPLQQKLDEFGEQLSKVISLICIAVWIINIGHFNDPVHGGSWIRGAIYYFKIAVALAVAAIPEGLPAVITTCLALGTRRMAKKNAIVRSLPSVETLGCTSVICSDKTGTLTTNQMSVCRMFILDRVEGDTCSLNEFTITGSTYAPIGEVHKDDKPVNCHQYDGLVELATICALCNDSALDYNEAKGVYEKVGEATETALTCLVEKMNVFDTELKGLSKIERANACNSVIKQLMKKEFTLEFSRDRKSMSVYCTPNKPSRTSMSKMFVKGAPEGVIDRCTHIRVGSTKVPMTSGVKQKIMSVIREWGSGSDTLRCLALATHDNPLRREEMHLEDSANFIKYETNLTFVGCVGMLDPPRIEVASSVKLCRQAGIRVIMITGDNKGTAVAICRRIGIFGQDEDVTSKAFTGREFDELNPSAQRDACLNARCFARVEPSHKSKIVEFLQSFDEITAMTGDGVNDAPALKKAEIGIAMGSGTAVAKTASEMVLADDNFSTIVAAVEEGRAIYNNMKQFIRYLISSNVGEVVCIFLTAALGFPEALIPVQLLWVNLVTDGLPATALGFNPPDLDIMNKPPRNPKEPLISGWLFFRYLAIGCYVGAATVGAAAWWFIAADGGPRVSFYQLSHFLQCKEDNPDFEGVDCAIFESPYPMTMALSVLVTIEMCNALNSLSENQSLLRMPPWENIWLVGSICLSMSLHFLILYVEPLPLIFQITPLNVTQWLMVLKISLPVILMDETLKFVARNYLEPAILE
Particulars: mechanism study; cited from earlier work.

Data set [4] has as its system isolated rat heart [Isolated Rat Heart]. Particulars: pharmacological studies; cited from earlier work.
The nature of data set [5]: Pharmacokinetics in Sprague-Dawley rats (plasma, HPLC). The format is in vivo. Particulars: SD rat; for AUC / half-life: gavage and tail vein dosing.
Setting [6] is: 10 mg/kg, low dose (doses 10, 20, 40 mg·kg-1), route not given.
Setting [7] is: 20 mg/kg, middle dose (doses 10, 20, 40 mg·kg-1), route not given.
The mark [8] stands for this setting: high dose (doses 10, 20, 40 mg·kg-1), route not given.

Turning to `CCOCc1nc(C)c(COCC)nc1C` [2,5-二乙氧甲基-3,6-二甲基吡嗪], in data set [1], the arrhythmia result is recorded as “会导致心律失常”.
With `COCc1nc(C)c(COC)nc1C` [2,5-二甲氧甲基-3,6-二甲基吡嗪], in data set [1], the arrhythmia entry was “会导致心律失常”.
Turning to `Cc1nc(C(=O)O)c(C)nc1C(=O)O` [3,6-二甲基-2,5-吡嗪二甲酸], the activity result in data set [1] was “明显下降”.
In the case of `Cc1nc(CO)c(C)nc1CO` [liguzinediol, 2,5-二羟甲基-3,6-二甲基吡嗪], in data set [2] (in animals), the half-life (in general, how long it takes for the measured level to halve) is given as 1.6 h and the metabolic rate result is given as “相对较快”. In addition, in data set [2] (in vivo), the glucuronide conjugate formation result is recorded as “很快地形成了葡萄糖醛酸结合物而排出体外”; the “oxidation of hydroxymethyl and side-chain methyl” value is “容易被氧化成极性和水溶性较大的化合物而排出体外”. The “mechanism of positive inotropic effect” value in data set [3] is “通过作用于心肌细胞内的SERCA2a靶点而发挥正性肌力作用”. In data set [4], the arrhythmia side effect result was “没有心律失常副作用” and the positive inotropic effect entry is “明显的正性肌力作用”.
For the compound `CCC(O)c1nc(C)c(C(O)CC)nc1C` (stereo not drawn) [化合物2, 2,5-二-(1-羟基丙基)-3,6-二甲基吡嗪], the AUC (commonly the area under the concentration-time curve, a measure of exposure) in data set [5] (setting [6]) amounted to 34000 ng·h/mL; in data set [5] (setting [7]), 70000 ng·h/mL; in data set [5] (setting [8]), 135000 ng·h/mL. In addition, the results for the half-life in data set [5] (setting [6]), in data set [5] (setting [7]) and in data set [5] (setting [8]) were 3.7 h, 3.6 h and 3.5 h, respectively. Besides, the clearance (commonly the volume of plasma or blood freed of the substance per unit of time) in data set [5] (low, middle and high doses, route not given) is ~5 mL/min/kg. Moreover, the bioavailability (as a rule, dose-corrected exposure relative to a reference, in per cent) in data set [5] (po, gavage and tail vein injection, 10, 20, 40 mg·kg-1) was found to be 90%.
